From PMC12102759 (Protein Science : A Publication of the Protein Society, 2025)

Test system: G3BP1 NFT2
Format: binding, human
Details: library DMS-BM; bait G3BP1 NFT2; prey CAPRIN1; AQMQGPYNFIQDSM(averaged): mean of the two overlapping peptides over the shared positions

Row | Substance | DMS position-specific score (PSSM value) per amino-acid substitution, averaged
1 | AQMQGPYNFIQDSM(averaged) Q11T (AQMQGPYNFITDSM) | 0.1081
2 | AQMQGPYNFIQDSM(averaged) G5R (AQMQRPYNFIQDSM) | 0.0001509
3 | AQMQGPYNFIQDSM(averaged) Q4T (AQMTGPYNFIQDSM) | 0.0001371
4 | AQMQGPYNFIQDSM(averaged) Q4E (AQMEGPYNFIQDSM) | 0.0003947
5 | AQMQGPYNFIQDSM(averaged) D12S (AQMQGPYNFIQSSM) | 0.1749
6 | AQMQGPYNFIQDSM(averaged) S13M (AQMQGPYNFIQDMM) | 0
7 | AQMQGPYNFIQDSM(averaged) P6H (AQMQGHYNFIQDSM) | 0.008056
8 | AQMQGPYNFIQDSM(averaged) F9Q (AQMQGPYNQIQDSM) | 0.01043
9 | AQMQGPYNFIQDSM(averaged) Y7V (AQMQGPVNFIQDSM) | 0.02381
10 | AQMQGPYNFIQDSM(averaged) G5T (AQMQTPYNFIQDSM) | 0.007904
11 | AQMQGPYNFIQDSM(averaged) Y7P (AQMQGPPNFIQDSM) | 0.002813
12 | AQMQGPYNFIQDSM(averaged) M14W (AQMQGPYNFIQDSW) | 0.06336
13 | AQMQGPYNFIQDSM(averaged) Q11E (AQMQGPYNFIEDSM) | 0
14 | AQMQGPYNFIQDSM(averaged) M3R (AQRQGPYNFIQDSM) | 0.003692
15 | AQMQGPYNFIQDSM(averaged) P6A (AQMQGAYNFIQDSM) | 0.08584
16 | AQMQGPYNFIQDSM(averaged) A1H (HQMQGPYNFIQDSM) | 0.006137

Row | Substance | DMS position-specific score (PSSM value) per amino-acid substitution, averaged
17 | AQMQGPYNFIQDSM(averaged) Q4F (AQMFGPYNFIQDSM) | 0.01567
18 | AQMQGPYNFIQDSM(averaged) A1E (EQMQGPYNFIQDSM) | 0.1606
19 | AQMQGPYNFIQDSM(averaged) Q2T (ATMQGPYNFIQDSM) | 0.03322
20 | AQMQGPYNFIQDSM(averaged) A1V (VQMQGPYNFIQDSM) | 0.05956
21 | AQMQGPYNFIQDSM(averaged) Y7N (AQMQGPNNFIQDSM) | 0
22 | AQMQGPYNFIQDSM(averaged) M14D (AQMQGPYNFIQDSD) | 0.036
23 | AQMQGPYNFIQDSM(averaged) Q2S (ASMQGPYNFIQDSM) | 0.004198
24 | AQMQGPYNFIQDSM(averaged) G5W (AQMQWPYNFIQDSM) | 0.033
25 | AQMQGPYNFIQDSM(averaged) F9E (AQMQGPYNEIQDSM) | 0
26 | AQMQGPYNFIQDSM(averaged) F9T (AQMQGPYNTIQDSM) | 0
27 | AQMQGPYNFIQDSM(averaged) M3S (AQSQGPYNFIQDSM) | 0.002665
28 | AQMQGPYNFIQDSM(averaged) S13Q (AQMQGPYNFIQDQM) | 0
29 | AQMQGPYNFIQDSM(averaged) Q11Q | 0.3738
30 | AQMQGPYNFIQDSM(averaged) S13V (AQMQGPYNFIQDVM) | 0.1094
31 | AQMQGPYNFIQDSM(averaged) M14Q (AQMQGPYNFIQDSQ) | 0.06683
32 | AQMQGPYNFIQDSM(averaged) G5L (AQMQLPYNFIQDSM) | 0.1936
